The text below walks through data of patent publication US20070232590A1, “3-Cylcoalkylbenzazepines as Histamine H3 Antagonists” (GLAXO GROUP LIMITED, priority 2004, published 2007).

The target in test [1] is T1, histamine H3 receptor (Homo sapiens, UniProt Q9Y5N1).
T1 construct: expressed in transfected cells; host or cells: CHO K1 cells carrying pSwitch, transfected with pGeneH3 and induced with mifepristone; clone 3H3; membrane preparation
Description: Histamine H3 functional antagonist assay (method A), [35S]-GTPγS SPA on membranes. The note with it: functional pKi, membrane from cultured H3 cells (CHO K1), histamine at EC80, averages of a number of experiments, read-out: Antagonism (fpKi) (converted). Format: biochemical. The text has this:
(§1) A membrane preparation containing histamine H3 receptors may be prepared in accordance with the following procedures:
(§2) (i) Generation of Histamine H3 Cell Line
(§3) DNA encoding the human histamine H3 gene (Huvar, A. et al. (1999) Mol. Pharmacol. 55(6), 1101-1107) was cloned into a holding vector, pCDNA3.1 TOPO (InVitrogen) and its cDNA was isolated from this vector by restriction digestion of plasmid DNA with the enzymes BamH1 and Not-1 and ligated into the inducible expression vector pGene (InVitrogen) digested with the same enzymes. The GeneSwitch™ system (a system where in transgene expression is switched off in the absence of an inducer and switched on in the presence of an inducer) was performed as described in U.S. Pat. Nos. 5,364,791; 5,874,534; and 5,935,934. Ligated DNA was transformed into competent DH5α E. coli host bacterial cells and plated onto Luria Broth (LB) agar containing Zeocin™ (an antibiotic which allows the selection of cells expressing the sh ble gene which is present on pGene and pSwitch) at 50 μg ml^−1. Colonies containing the re-ligated plasmid were identified by restriction analysis. DNA for transfection into mammalian cells was prepared from 250 ml cultures of the host bacterium containing the pGeneH3 plasmid and isolated using a DNA preparation kit (Qiagen Midi-Prep) as per manufacturers guidelines (Qiagen).
CHO K1 cells previously transfected with the pSwitch regulatory plasmid (InVitrogen) were seeded at 2×10e6 cells per T75 flask in Complete Medium, containing Hams F12 (GIBCOBRL, Life Technologies) medium supplemented with 10% v/v dialysed foetal bovine serum, L-glutamine, and hygromycin (100 μg ml^−1), 24 hours prior to use. Plasmid DNA was transfected into the cells using Lipofectamine plus according to the manufacturers guidelines (InVitrogen). 48 hours post transfection cells were placed into complete medium supplemented with 500 μg ml^−1 Zeocin™.
10-14 days post selection 10 nM Mifepristone (InVitrogen), was added to the culture medium to induce the expression of the receptor. 18 hours post induction cells were detached from the flask using ethylenediamine tetra-acetic acid (EDTA; 1:5000; InVitrogen), following several washes with phosphate buffered saline pH 7.4 and resuspended in Sorting Medium containing Minimum Essential Medium (MEM), without phenol red, and supplemented with Earles salts and 3% Foetal Clone II (Hyclone). Approximately 1×10e7 cells were examined for receptor expression by staining with a rabbit polyclonal antibody, 4a, raised against the N-terminal domain of the histamine H3 receptor, incubated on ice for 60 minutes, followed by two washes in sorting medium. Receptor bound antibody was detected by incubation of the cells for 60 minutes on ice with a goat anti rabbit antibody, conjugated with Alexa 488 fluorescence marker (Molecular Probes). Following two further washes with Sorting Medium, cells were filtered through a 50 μm Filcon™ (BD Biosciences) and then analysed on a FACS Vantage SE Flow Cytometer fitted with an Automatic Cell Deposition Unit. Control cells were non-induced cells treated in a similar manner. Positively stained cells were sorted as single cells into 96-well plates, containing Complete Medium containing 500 μg ml^−1 Zeocin™ and allowed to expand before reanalysis for receptor expression via antibody and ligand binding studies. One clone, 3H3, was selected for membrane preparation.
(ii) Membrane Preparation from Cultured Cells
All steps of the protocol are carried out at 4° C. and with pre-cooled reagents. The cell pellet is resuspended in 10 volumes of homogenisation buffer (50 mM N-2-hydroxyethylpiperazine-N′-2-ethanesulfonic acid (HEPES), 1 mM ethylenediamine tetra-acetic acid (EDTA), pH 7.4 with KOH, supplemented with 10e-6M leupeptin (acetyl-leucyl-leucyl-arginal; Sigma L2884), 25 μg/ml bacitracin (Sigma B0125), 1 mM phenylmethylsulfonyl fluoride (PMSF) and 2×10 e-6M pepstain A (Sigma)). […]

Test [2] concerns the target T1, histamine H3 receptor. Kind of test: Histamine H3 functional antagonist assay (method B), [35S]-GTPγS SPA on membranes. The test is classed as biochemical. The note with it: functional pKi, membrane from cultured H3 cells (CHO K1), histamine at EC80, averages of a number of experiments, read-out: Antagonism (fpKi) (converted).
Description: as §1, §2
as §3, with “(Qiagen). […]” for “(Qiagen).”
10-14 days post selection 10 nM Mifepristone (InVitrogen), was added to the culture medium to induce the expression of the receptor. […] Receptor bound antibody was detected by incubation of the cells for 60 minutes on ice with a goat anti rabbit antibody, conjugated with Alexa 488 fluorescence marker (Molecular Probes). Following two further washes with Sorting Medium, cells were filtered through a 50 μm Filcon™ (BD Biosciences) and then analysed on a FACS Vantage SE Flow Cytometer fitted with an Automatic Cell Deposition Unit. […]
On the technique in general: GTPγS is a poorly hydrolysed GTP analogue; its binding reports G protein activation.

T1 sequence (Q9Y5N1 whole entry): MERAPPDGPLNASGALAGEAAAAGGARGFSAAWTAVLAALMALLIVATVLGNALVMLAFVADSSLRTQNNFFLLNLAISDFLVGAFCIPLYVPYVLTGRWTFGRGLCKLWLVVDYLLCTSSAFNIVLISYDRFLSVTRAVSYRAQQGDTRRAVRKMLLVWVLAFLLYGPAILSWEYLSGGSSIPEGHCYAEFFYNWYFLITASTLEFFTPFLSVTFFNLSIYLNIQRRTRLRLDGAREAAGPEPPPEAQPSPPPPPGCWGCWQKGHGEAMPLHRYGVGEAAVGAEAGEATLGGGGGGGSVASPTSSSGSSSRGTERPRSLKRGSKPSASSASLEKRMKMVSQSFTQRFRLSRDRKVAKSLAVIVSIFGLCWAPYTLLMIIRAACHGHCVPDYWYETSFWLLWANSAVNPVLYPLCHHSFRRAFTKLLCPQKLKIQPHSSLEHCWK

For `O=C1CCCN1c1ccc(Oc2ccc3c(c2)CCN(C2CCCC2)CC3)nc1` [Compound 1, 1-{6-[(3-Cyclopentyl-2,3,4,5-tetrahydro-1H-3-benzazepin-7-yl)oxy]-3-pyridinyl}-2-pyrrolidinone], the Ki at histamine H3 receptor [1] was 0.0794 nM; on histamine H3 receptor [2], 0.158 nM.

For the compound `Cc1noc(-c2cnc(Oc3ccc4c(c3)CCN(C3CCCC3)CC4)cn2)n1` [Compound 7, 3-Cyclopentyl-7-{[5-(3-methyl-1,2,4-oxadiazol-5-yl)-2-pyrazinyl]oxy}-2,3,4,5-tetrahydro-1H-3-benzazepine], the Ki at histamine H3 receptor [1] was 0.126 nM. Turning to `O=C1CCCN1c1ccc(Oc2ccc3c(c2)CCN(C2CCC2)CC3)cc1` [Compound 4, 1-{4-[(3-Cyclobutyl-2,3,4,5-tetrahydro-1H-3-benzazepin-7-yl)oxy]phenyl}-2-pyrrolidinone], the Ki at histamine H3 receptor [1] is 0.158 nM. Still for that read-out and setting: the result for `Cc1noc(-c2ccc(Oc3ccc4c(c3)CCN(C3CCC3)CC4)nc2)n1` [Compound 8, 3-Cyclobutyl-7-{[5-(3-methyl-1,2,4-oxadiazol-5-yl)-2-pyridinyl]oxy}-2,3,4,5-tetrahydro-1H-3-benzazepine] reads 0.1 nM; that for `O=C1CCCN1c1ccc(Oc2ccc3c(c2)CCN(C2CCCC2)CC3)nn1` [Compound 6, 1-{6-[(3-Cyclopentyl-2,3,4,5-tetrahydro-1H-3-benzazepin-7-yl)oxy]-3-pyridazinyl}-2-pyrrolidinone], 0.126 nM. As for `CN1CCN(c2ccc(Oc3ccc4c(c3)CCN(C3CCC3)CC4)c(F)c2)C1=O` [Compound 3, 1-{4-[(3-Cyclobutyl-2,3,4,5-tetrahydro-1H-3-benzazepin-7-yl)oxy]-3-fluorophenyl}-3-methyl-2-imidazolidinone], the figures for the Ki on histamine H3 receptor [1] and at histamine H3 receptor [2] were 0.0501 nM and 0.158 nM, respectively.

In the case of `Cc1noc(-c2ccc(Oc3ccc4c(c3)CCN(C3CCCC3)CC4)nc2)n1` [Compound 9, 3-Cyclopentyl-7-{[5-(3-methyl-1,2,4-oxadiazol-5-yl)-2-pyridinyl]oxy}-2,3,4,5-tetrahydro-1H-3-benzazepine], the Ki at histamine H3 receptor [1] was 0.251 nM.

On to `O=C1CCCN1c1cnc(Oc2ccc3c(c2)CCN(C2CCCC2)CC3)cn1` [Compound 2, 1-{5-[(3-Cyclopentyl-2,3,4,5-tetrahydro-1H-3-benzazepin-7-yl)oxy]-2-pyrazinyl}-2-pyrrolidinone], for which the Ki on histamine H3 receptor [1] was 0.0794 nM; at histamine H3 receptor [2], 0.158 nM. Regarding `O=C1OCCN1c1ccc(Oc2ccc3c(c2)CCN(C2CCCC2)CC3)nn1` [Compound 5, 3-{6-[(3-Cyclopentyl-2,3,4,5-tetrahydro-1H-3-benzazepin-7-yl)oxy]-3-pyridazinyl}-1,3-oxazolidin-2-one], the Ki on histamine H3 receptor [1] is 0.0501 nM.
